Read-outs that look alike come from different tables or passages of the source. Where a SMILES comes first, the peptide text is derived from it.
Tests used:
[1] = concentration in blood after tail vein injection, ICP-MASS of iridium; details: mouse, in vivo, BALB/c mice, 100 μL of 500 μM, read-out: elimination half-life in the blood
Method: 36 BALB/c mice were equally divided into two groups and injected with 100 μL of Ir-cR8 and Ir-cR8-HSA nanoparticles (500 μM) through tail veins, separately. After 0.5 h, 2 h, 4 h, 8 h, 24 h and 48 h, eyes were removed for blood sampling and centrifuged at 10000 rpm for 10 min. […] of centrifuged serum was added with 1 mL of high chlorine acid and 3 mL of aqua regia, digested at 260° C. for 2 h, and added with water to 10 mL. The content of metal iridium in the blood at each time point was detected by ICP-MASS.

[2] = system: Human cervical cancer cells, Hela cells; assay type: cell-based
Method: Human cervical cancer cells, Hela cells, were dispersed with a DMEM medium containing 10% fetal bovine serum and spread to a 96-well plate, 8000 cells per well. After the cells were attached to the walls, Ir-cR5, Ir-cR8 and Ir-aR8 of 2, 4, 8, 16, 32, 64 and 128 μM and the corresponding oligoarginine polypeptides cR5, cR8 and aR8 were added and incubated for 24 h. The cell activity was detected by a thiazole blue method and the half-maximal inhibitory concentration (IC50) was calculated.

[3] = target: T1, human serum albumin (HSA) (human, UniProt P02768 25-609); experiment: dynamic light scattering of peptide-albumin assembly
T1 construct: Dissolved in water and used in solution
Method: The detection was performed at 25° C. using the dynamic light scattering apparatus, and only the peaks of the formed polypeptide albumin nanoparticles were calculated.

T1 sequence (P02768 25-609 limits assumed): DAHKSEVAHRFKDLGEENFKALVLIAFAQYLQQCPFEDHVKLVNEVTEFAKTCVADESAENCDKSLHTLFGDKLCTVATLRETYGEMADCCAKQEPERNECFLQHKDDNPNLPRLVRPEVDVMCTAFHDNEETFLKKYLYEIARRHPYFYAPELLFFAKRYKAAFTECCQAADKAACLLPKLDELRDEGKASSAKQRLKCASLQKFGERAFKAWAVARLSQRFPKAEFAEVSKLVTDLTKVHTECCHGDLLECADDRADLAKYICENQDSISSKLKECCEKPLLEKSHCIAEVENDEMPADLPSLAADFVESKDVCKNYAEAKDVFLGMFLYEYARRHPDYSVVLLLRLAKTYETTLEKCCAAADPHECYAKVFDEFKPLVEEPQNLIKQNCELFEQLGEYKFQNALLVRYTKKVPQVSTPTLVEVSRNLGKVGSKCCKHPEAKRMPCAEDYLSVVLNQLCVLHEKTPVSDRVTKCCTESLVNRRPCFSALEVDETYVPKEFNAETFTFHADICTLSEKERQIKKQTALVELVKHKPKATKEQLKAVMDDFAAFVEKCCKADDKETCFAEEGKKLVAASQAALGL

binding result [3]	Molecule	further results
–	CC(=O)N[C@@H](Cc1c[nH]cn1)C(=O)N[C@@H](CCCNC(=N)N)C(=O)N[C@@H](CCCNC(=N)N)C(=O)N[C@@H](CCCNC(=N)N)C(=O)N[C@@H](CCCNC(=N)N)C(=O)N[C@@H](CCCNC(=N)N)C(=O)N[C@@H](CCCNC(=N)N)C(=O)N[C@@H](CCCNC(=N)N)C(=O)N[C@@H](CCCNC(=N)N)C(=O)N[C@@H](Cc1c[nH]cn1)C(N)=O [Ir-cR8] (Ac-HRRRRRRRRH-NH2)	half-life [1]: < 30 min
–	CC(=O)N[C@@H](Cc1c[nH]cn1)C(=O)N[C@@H](Cc1c[nH]cn1)C(=O)N[C@@H](CCCNC(=N)N)C(=O)N[C@@H](CCCNC(=N)N)C(=O)N[C@@H](CCCNC(=N)N)C(=O)N[C@@H](CCCNC(=N)N)C(=O)N[C@@H](CCCNC(=N)N)C(=O)N[C@@H](CCCNC(=N)N)C(=O)N[C@@H](CCCNC(=N)N)C(=O)N[C@@H](CCCNC(=N)N)C(N)=O [aR8] (Ac-HHRRRRRRRR-NH2; N-terminus and C-terminus assumed)	IC50 ([2]; 24 h): > 100 µM
–	CC(=O)NC(Cc1c[nH]cn1)C(=O)NC(CCCNC(=N)N)C(=O)NC(CCCNC(=N)N)C(=O)NC(CCCNC(=N)N)C(=O)NC(CCCNC(=N)N)C(=O)NC(CCCNC(=N)N)C(=O)NC(Cc1c[nH]cn1)C(N)=O (centres unmarked) [cR5] (Ac-HRRRRRH-NH2; configuration not given here)	IC50 ([2]; 24 h): > 100 µM
–	CC(=O)NC(Cc1c[nH]cn1)C(=O)NC(CCCNC(=N)N)C(=O)NC(CCCNC(=N)N)C(=O)NC(CCCNC(=N)N)C(=O)NC(CCCNC(=N)N)C(=O)NC(CCCNC(=N)N)C(=O)NC(CCCNC(=N)N)C(=O)NC(CCCNC(=N)N)C(=O)NC(CCCNC(=N)N)C(=O)NC(Cc1c[nH]cn1)C(N)=O (centres unmarked) [cR8] (Ac-HRRRRRRRRH-NH2; configuration not given here)	IC50 ([2]; Hela cells, incubated for 24 h, read-out: IC50): > 100 µM
binds	cholesterol-RRRRRRRR-NH2 [chol-RRRRRRRR (SEQ ID NO: 2)-CONH2 (CR)]	–
binds	Ac-KKKKHHKKKK-NH2 (also: coordinated with iridium complex from [Ir(ppy)2(H2O)2]OTf (1:1), also called Formula VII) [iridium-coordinated oligopolypeptide (Ir-mK8)]	–
binds	Ac-HKKKKKKKKH-NH2 (also: coordinated with iridium complex from [Ir(ppy)2(H2O)2]OTf (1:1), also called Formula VIII) [iridium-coordinated oligopolypeptide (Ir-cK8)]	–
binds	Ac-FWLFLRRRRRRRR-NH2 [CH3CO-FWLFLRRRRRRRR (SEQ ID NO: 1)-CONH2 (FR)]	–

Reference: US20240261365A1, “POLYPEPTIDE ALBUMIN NANOPARTICLE, PREPARATION METHOD THEREFOR, AND APPLICATION THEREOF” (SUZHOU INSTITUTE OF NANO-TECH AND NANO-BIONICS (SINANO) , …, priority 2020, published 2024)
